# Laboratory results taken from ChEMBL document CHEMBL4602617, “Discovery and optimization of heteroaryl piperazines as potent and selective PI3Kδ inhibitors” (Bioorg Med Chem Lett, 2020).
# What was measured:
# [1] = biological target: Cytochrome P450 2D6 (Homo sapiens, UniProt P10635); test: Inhibition of CYP2D6 (unknown origin)
# [2] = biological target: Melanocortin receptor 5 (Homo sapiens) (UniProt P33032); test: Displacement of [125I]NDP-alpha-MSH from full length human recombinant MC5 receptor expressed in HEK293 cells at 10 uM measured after 120 mins by radiometric scintillation analysis relative to control; type: cell-based
# [3] = biological target: Leucine-rich repeat serine/threonine-protein kinase 2 (Homo sapiens, UniProt Q5S007, G2019S); test: Inhibition of recombinant human GST-tagged LRRK2 G2019S mutant catalytic domain (970 to 2527 residues) expressed in baculovirus expression system using LRRKtide as substrate measured after 1 hr in presence of ATP by ADAPTA assay
# Chain of Leucine-rich repeat serine/threonine-protein kinase 2 (Q5S007 whole entry G2019S, the tested form may be a part): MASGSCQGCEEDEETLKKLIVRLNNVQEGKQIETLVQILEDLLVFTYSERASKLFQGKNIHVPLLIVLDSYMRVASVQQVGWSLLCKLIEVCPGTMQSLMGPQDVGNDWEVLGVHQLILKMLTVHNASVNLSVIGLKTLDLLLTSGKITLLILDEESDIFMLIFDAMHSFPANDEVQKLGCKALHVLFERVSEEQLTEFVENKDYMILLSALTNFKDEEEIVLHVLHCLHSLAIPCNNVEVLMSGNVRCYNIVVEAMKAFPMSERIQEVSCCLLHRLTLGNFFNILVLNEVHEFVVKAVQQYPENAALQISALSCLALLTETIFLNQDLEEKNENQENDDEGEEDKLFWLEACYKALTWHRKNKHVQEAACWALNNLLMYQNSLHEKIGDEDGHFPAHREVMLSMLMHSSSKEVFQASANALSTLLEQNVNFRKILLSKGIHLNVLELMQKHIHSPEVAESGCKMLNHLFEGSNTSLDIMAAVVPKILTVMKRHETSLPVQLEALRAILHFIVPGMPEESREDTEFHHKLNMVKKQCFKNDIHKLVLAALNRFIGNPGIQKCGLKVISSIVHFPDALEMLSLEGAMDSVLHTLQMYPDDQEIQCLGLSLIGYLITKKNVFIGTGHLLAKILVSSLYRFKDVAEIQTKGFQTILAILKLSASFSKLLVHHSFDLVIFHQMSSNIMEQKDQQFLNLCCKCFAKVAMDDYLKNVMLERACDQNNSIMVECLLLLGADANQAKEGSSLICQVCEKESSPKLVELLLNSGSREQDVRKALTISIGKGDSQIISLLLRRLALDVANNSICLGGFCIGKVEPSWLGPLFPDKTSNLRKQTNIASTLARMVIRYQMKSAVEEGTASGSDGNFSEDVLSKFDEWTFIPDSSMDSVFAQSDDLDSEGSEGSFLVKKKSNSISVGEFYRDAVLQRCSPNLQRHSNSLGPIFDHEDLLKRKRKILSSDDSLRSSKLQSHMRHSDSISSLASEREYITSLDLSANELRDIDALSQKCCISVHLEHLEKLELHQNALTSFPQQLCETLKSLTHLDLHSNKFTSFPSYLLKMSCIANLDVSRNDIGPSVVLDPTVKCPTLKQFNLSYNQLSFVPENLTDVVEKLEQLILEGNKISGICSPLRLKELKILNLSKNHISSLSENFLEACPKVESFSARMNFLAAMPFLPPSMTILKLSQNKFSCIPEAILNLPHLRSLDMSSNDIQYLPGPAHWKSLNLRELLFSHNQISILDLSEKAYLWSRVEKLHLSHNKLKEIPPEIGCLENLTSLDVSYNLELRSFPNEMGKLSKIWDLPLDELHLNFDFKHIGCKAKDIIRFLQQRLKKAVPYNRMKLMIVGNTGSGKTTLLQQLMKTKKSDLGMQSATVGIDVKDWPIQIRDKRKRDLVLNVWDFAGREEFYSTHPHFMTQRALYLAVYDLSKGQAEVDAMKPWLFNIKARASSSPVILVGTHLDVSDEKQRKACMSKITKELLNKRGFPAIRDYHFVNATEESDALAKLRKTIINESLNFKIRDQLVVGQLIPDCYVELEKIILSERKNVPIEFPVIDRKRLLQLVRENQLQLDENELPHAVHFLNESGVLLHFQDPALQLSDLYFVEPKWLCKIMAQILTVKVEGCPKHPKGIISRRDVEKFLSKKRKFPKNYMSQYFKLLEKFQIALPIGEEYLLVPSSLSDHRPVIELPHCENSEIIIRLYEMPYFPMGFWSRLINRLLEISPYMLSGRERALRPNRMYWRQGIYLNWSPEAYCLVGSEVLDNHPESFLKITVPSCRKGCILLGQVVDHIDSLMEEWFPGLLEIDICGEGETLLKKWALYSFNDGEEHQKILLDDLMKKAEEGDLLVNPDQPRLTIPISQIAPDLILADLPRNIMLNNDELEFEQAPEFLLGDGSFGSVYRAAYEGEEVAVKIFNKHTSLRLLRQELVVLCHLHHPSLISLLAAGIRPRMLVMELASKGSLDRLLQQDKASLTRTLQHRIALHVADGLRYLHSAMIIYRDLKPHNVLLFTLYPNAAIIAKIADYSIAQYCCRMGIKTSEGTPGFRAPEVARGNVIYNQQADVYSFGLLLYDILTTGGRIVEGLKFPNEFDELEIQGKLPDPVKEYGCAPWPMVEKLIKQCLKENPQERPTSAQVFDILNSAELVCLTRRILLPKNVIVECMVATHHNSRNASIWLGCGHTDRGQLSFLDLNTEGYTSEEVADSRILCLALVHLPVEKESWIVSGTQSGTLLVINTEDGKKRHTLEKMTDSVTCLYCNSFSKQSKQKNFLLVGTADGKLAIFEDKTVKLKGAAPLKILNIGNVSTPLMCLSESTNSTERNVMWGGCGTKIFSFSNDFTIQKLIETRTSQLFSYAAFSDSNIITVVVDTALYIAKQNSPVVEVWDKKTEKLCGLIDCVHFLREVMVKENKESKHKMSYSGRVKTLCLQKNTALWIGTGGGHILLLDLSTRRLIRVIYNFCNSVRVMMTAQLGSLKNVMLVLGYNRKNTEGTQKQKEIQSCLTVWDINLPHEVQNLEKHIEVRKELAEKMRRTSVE
# [4] = biological target: Histamine H3 receptor (Homo sapiens) (UniProt Q9Y5N1); test: Displacement of [3H]N-alpha-Methylhistamine from full length human recombinant histamine H3 receptor expressed in CHO-K1 cells at 10 uM measured after 120 mins by radiometric scintillation analysis relative to control; type: cell-based
# [5] = biological target: Phosphorylase b kinase gamma catalytic chain, skeletal muscle/heart isoform (Homo sapiens, UniProt Q16816); test: Inhibition of recombinant full length human GST-tagged PHKG1 expressed in baculovirus expression system using serine/threonine-7 peptide as substrate incubated for 60 mins in presence of ATP by Z'-LYTE assay
# [6] = biological target: C-X-C chemokine receptor type 2 (Homo sapiens) (UniProt P25025); test: Displacement of [125I]IL-8 from recombinant full length human CXCR2 receptor expressed in CHOK1 cells at 10 uM measured after 60 mins by radiometric scintillation analysis relative to control; type: cell-based; conditions: CHO-K1
# [7] = biological target: Serine/threonine-protein kinase TBK1 (Homo sapiens, UniProt Q9UHD2); test: Inhibition of recombinant full length human GST-tagged TBK1 expressed in insect expression system using serine/threonine-5 peptide as substrate incubated for 60 mins in presence of ATP by Z'-LYTE assay
# [8] = biological target: Dual specificity tyrosine-phosphorylation-regulated kinase 4 (Homo sapiens, UniProt Q9NR20); test: Inhibition of recombinant full length human GST-tagged DYRK4 expressed in baculovirus expression system using serine/threonine-9 peptide as substrate incubated for 60 mins in presence of ATP by Z'-LYTE assay
# [9] = biological target: Hepatocyte growth factor receptor (Homo sapiens, UniProt P08581); test: Inhibition of human recombinant His-tagged cMET cytoplasmic domain expressed in baculovirus expression system using tyrosine 6 peptide as substrate after 60 mins in presence of ATP FRET based Z'-LYTE assay
# [10] = biological target: Serine/threonine-protein kinase 4 (Homo sapiens, UniProt Q13043); test: Inhibition of recombinant full length human GST-tagged MST1 expressed in baculovirus expression system using serine/threonine-7 peptide as substrate incubated for 60 mins in presence of ATP by Z'-LYTE assay
# [11] = biological target: Calcitonin gene-related peptide type 1 receptor (Homo sapiens) (UniProt Q16602); test: Inhibition of human AM1 receptor at 10 uM relative to control
# [12] = biological target: Rho-associated protein kinase 2 (Homo sapiens, UniProt O75116); test: Inhibition of recombinant human GST-tagged ROCK2 catalytic domain expressed in baculovirus expression system using serine/threonine-13 peptide as substrate incubated for 60 mins in presence of ATP by Z'-LYTE assay
# [13] = biological target: Neuropeptide Y receptor type 2 (Homo sapiens) (UniProt P49146); test: Displacement of [[125I]peptide YY from full length human KAN-TS cell membrane derived Y2 neuropeptide receptor at 10 uM measured after 120 mins by radiometric scintillation analysis relative to control
# Chain of Neuropeptide Y receptor type 2 (Homo sapiens) (P49146 whole entry): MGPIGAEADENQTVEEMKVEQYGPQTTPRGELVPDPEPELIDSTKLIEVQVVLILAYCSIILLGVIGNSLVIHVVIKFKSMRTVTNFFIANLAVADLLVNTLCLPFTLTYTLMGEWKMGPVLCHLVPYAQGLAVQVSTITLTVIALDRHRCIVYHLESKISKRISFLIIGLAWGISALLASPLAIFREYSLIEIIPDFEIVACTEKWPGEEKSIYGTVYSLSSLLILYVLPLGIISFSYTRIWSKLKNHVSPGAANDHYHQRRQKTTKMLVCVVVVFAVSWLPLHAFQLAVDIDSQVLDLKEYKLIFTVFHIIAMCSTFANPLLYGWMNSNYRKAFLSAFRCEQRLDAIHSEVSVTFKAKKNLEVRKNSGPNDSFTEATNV
# [14] = biological target: Sphingosine kinase 1 (Homo sapiens, UniProt Q9NYA1); test: Inhibition of recombinant full length human GST-tagged SPHK1 expressed in baculovirus expression system using sphingosine lipid as substrate incubated for 60 mins in presence of ATP by Adapta assay
# Chain of Sphingosine kinase 1 (Q9NYA1 whole entry): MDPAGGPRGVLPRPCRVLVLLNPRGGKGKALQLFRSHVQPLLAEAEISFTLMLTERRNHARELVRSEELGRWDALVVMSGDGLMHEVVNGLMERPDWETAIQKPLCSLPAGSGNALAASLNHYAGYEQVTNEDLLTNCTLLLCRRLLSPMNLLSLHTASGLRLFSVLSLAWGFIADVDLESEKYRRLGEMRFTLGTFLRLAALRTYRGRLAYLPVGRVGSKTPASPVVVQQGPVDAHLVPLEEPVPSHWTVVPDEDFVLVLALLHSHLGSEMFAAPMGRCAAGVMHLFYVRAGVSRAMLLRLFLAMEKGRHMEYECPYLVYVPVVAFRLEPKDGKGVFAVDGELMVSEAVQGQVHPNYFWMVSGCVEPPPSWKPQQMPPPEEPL
# [15] = biological target: Cytochrome P450 2C9 (Homo sapiens, UniProt P11712); test: Inhibition of CYP2C9 (unknown origin); type: ADME
# [16] = Unbound clearance in rat at 0.5 mg/kg, iv or 1 mg/kg, po; type: ADME, organism-based; conditions: in vivo
# [17] = biological target: 5-hydroxytryptamine receptor 3A (Homo sapiens) (UniProt P46098); test: Displacement of [3H]GR-65630 from full length human recombinant 5HT3 receptor expressed in HEK293 cells at 10 uM measured after 60 mins by radiometric scintillation analysis relative to control; type: cell-based
# [18] = biological target: Mast/stem cell growth factor receptor Kit (Homo sapiens, UniProt P10721, T670I); test: Inhibition of recombinant human His-tagged KIT (544 to 976 residues) harboring T670I mutant expressed in baculovirus expression system using tyrosine-6 peptide as substrate incubated for 60 mins in presence of ATP by Z'-LYTE assay
# [19] = biological target: Cholecystokinin receptor type A (Homo sapiens) (UniProt P32238); test: Displacement of [3H]L-364,718 from recombinant full length human recombinant CCK1 expressed in 1321-N1 cells at 10 uM measured after 60 mins by radiometric scintillation analysis relative to control; type: cell-based
# [20] = biological target: Tyrosine-protein kinase BTK (Homo sapiens, UniProt Q06187); test: Inhibition of recombinant full length human His-tagged BTK expressed in baculovirus expression system using tyrosine-2 peptide as substrate incubated for 60 mins in presence of ATP by Z'-LYTE assay
# [21] = biological target: Tyrosine-protein kinase ABL1 (Homo sapiens, UniProt P00519, Y253F); test: Inhibition of recombinant full length human His-tagged ABL1 Y253F mutant cytoplasmic domain expressed in baculovirus expression system using tyrosine-2 peptide as substrate incubated for 60 mins in presence of ATP by Z'-LYTE assay
# [22] = biological target: NT-3 growth factor receptor (Homo sapiens, UniProt Q16288); test: Inhibition of recombinant human His-tagged TrkC cytoplasmic domain (510 to 825 residues) expressed in baculovirus using tyr 01 as substrate incubated for 1 hr in presence of ATP by Z'-Lyte assay
# [23] = biological target: Serine/threonine-protein kinase 25 (Homo sapiens, UniProt O00506); test: Inhibition of recombinant full length human GST-tagged YSK1 expressed in baculovirus expression system using serine/threonine-7 peptide as substrate incubated for 60 mins in presence of ATP by Z'-LYTE assay
# [24] = biological target: Mast/stem cell growth factor receptor Kit (Homo sapiens, UniProt P10721); test: Inhibition of human recombinant His-tagged KIT cytoplasmic domain expressed in baculovirus expression system using Tyr6 peptide as measured after 1 hr in presence of ATP by Z'-LYTE assay
# [25] = biological target: Tyrosine-protein kinase JAK3 (Homo sapiens, UniProt P52333); test: Inhibition of recombinant human GST-tagged JAK3 catalytic domain (781 to 1124 residues) expressed in baculovirus expression system using tyrosine-6 peptide as substrate incubated for 60 mins in presence of ATP by Z'-LYTE assay
# Chain of Tyrosine-protein kinase JAK3 (P52333 whole entry, the tested form may be a part, canonical isoform): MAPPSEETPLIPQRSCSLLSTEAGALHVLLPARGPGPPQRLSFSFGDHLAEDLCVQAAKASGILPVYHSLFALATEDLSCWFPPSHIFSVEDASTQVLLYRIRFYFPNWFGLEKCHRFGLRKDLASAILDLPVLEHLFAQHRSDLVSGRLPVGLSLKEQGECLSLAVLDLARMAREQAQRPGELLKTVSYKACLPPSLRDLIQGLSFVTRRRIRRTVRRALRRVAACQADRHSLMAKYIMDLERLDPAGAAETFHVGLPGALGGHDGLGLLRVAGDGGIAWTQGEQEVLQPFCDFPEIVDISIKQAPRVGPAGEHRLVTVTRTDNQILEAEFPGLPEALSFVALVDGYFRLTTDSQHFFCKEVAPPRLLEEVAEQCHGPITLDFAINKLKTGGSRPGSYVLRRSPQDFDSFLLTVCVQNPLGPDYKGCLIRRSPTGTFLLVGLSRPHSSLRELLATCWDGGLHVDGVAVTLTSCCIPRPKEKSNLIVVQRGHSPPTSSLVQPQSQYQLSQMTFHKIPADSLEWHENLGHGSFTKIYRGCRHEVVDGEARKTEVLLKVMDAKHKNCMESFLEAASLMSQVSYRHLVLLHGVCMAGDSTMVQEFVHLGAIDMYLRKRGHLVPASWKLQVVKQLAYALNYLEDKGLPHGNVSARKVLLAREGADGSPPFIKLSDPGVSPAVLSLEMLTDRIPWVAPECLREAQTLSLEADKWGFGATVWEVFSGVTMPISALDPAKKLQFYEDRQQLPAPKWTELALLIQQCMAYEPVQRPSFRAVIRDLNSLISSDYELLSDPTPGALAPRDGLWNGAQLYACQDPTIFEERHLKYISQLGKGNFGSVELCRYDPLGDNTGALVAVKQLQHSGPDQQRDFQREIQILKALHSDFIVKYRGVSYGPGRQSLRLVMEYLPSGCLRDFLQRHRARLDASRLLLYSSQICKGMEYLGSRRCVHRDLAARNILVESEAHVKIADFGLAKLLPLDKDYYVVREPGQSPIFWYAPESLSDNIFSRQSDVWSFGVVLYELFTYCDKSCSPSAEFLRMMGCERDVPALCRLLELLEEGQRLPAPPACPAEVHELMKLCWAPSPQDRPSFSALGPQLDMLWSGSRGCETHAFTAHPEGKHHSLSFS
# [26] = biological target: Casein kinase I isoform gamma-2 (Homo sapiens, UniProt P78368); test: Inhibition of recombinant human full-length His-tagged CSNK1G2 expressed in baculovirus expression system using FRET-labeled Ser/Thr 05 peptide as substrate measured after 1 hr in presence of ATP by Z'-lyte assay
# Chain of Casein kinase I isoform gamma-2 (P78368 whole entry, canonical isoform): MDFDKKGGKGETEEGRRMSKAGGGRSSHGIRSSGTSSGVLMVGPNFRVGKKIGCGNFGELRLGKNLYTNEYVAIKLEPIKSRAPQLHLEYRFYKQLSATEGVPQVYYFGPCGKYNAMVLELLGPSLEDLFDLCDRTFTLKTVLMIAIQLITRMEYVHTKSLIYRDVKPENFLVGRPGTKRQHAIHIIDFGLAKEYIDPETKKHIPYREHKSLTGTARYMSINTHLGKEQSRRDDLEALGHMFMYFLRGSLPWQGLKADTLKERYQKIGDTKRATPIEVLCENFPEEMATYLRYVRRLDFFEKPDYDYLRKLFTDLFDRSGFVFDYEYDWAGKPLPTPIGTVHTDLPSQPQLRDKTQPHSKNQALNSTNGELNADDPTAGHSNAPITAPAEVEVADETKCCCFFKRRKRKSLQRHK
smiles,measurement,setting,value
C[C@@H]1C[C@H]1C(=O)N1CCN(c2cnc(C#N)c(-c3cnn(C)c3)n2)C[C@H]1C,IC50,[1],> 50 µM
same,inhibition,[2],22%
same,IC50,[3],> 100 µM
same,inhibition,[4],-1%
same,IC50,[5],> 100 µM
same,inhibition,[6],5%
same,IC50,[7],> 100 µM
same,IC50,[8],> 100 µM
same,IC50,[9],> 100 µM
same,IC50,[10],> 100 µM
same,inhibition,[11],10%
same,IC50,[12],> 100 µM
same,inhibition,[13],-2%
same,IC50,[14],13.8 µM
same,IC50,[15],> 50 µM
same,CL free,[16],187 mL/min/kg
same,inhibition,[17],9%
same,IC50,[18],> 100 µM
same,inhibition,[19],3%
same,IC50,[20],39.6 µM
same,IC50,[21],> 100 µM
same,IC50,[22],> 100 µM
same,IC50,[23],> 100 µM
same,IC50,[24],> 100 µM
same,IC50,[25],13.7 µM
same,IC50,[26],> 100 µM
